The values below come from publication PMC8707786 (Pharmaceutics, 2021).

Read-outs that look alike come from different tables or passages of the source.

The nature of one series: in vivo. As to conditions: male, Wistar, rat, po, 100 mg/kg, Cl/F (apparent plasma clearance).
For series [1] the following is noted: rat, in vivo.
Protocol: (§1) The supernatant volume for each time point used to prepare the HPLC sample was 20 μL.
(§2) An ammonium acetate 0.1 M, pH = 3.4 (eluent A) and acetonitrile (eluent B) (1:1, v/v) solution were used as a mobile phase. The flow rate was set at 1.0 mL/min. […] Lapatinib was used as the internal standard (IS).
Series [2] in a line: Pharmacokinetics of sorafenib and sorafenib N-oxide in rat plasma (HPLC-UV), sorafenib alone or with morphine. The settings on record: for increase of AUC0–t in the presence of morphine / increase of Cmax in the presence of morphine: ISOR+MF vs. IISOR, rats; for ratio sorafenib N-oxide/sorafenib, Cmax: metabolite/parent ratio; for AUC0–t / AUC0–∞ / Cmax: rat plasma; for Cmax: mean ± SD.
Protocol: as §1, §2

[3] abbreviates: geometric mean ratio of the metabolite/parent ratio.
The mark [4] stands for this setting: geometric mean ratio, sorafenib + morphine vs. sorafenib alone.
[5] abbreviates: sorafenib 100 mg/kg p.o. + morphine 5 mg/kg i.p. (ISOR+MF, n = 8).
The mark [6] stands for this setting: sorafenib 100 mg/kg p.o. alone (IISOR, n = 8).

Protocol for in vivo: as §1, §2

The term CL/F denotes the apparent clearance, not corrected for the fraction that reaches the circulation. As to `CNC(=O)c1cc(Oc2ccc(NC(=O)Nc3ccc(Cl)c(C(F)(F)F)c3)cc2)ccn1` [sorafenib], in “in vivo”, the apparent clearance (CL/F) was 13.3 mL/min/kg. The “lower clearance in the ISOR+MF group” value in series [1] (male, Wistar) is listed as 0.4 fold. The “AUC0–∞” value in series [1] (male, Wistar, po, 100 mg/kg) came out at 67.05 ± 16.70 µg·h/mL. In series [1], the “AUC0–t/(D/kg)” value was 1.25 ± 0.32 µg·kg·h/mL/mg and the “AUC0–∞/(D/kg)” value came to 1.33 ± 0.33 µg·kg·h/mL/mg. Further, in series [1] (po, 100 mg/kg), the adverse effects entry is on record as “did not cause any adverse effects”.

With `CNC(=O)c1cc(Oc2ccc(NC(=O)Nc3ccc(Cl)c(C(F)(F)F)c3)cc2)cc[n+]1[O-]` [sorafenib N-oxide], in series [2], the “increase of AUC0–t in the presence of morphine” value is reported as 61.9% and the “increase of Cmax in the presence of morphine” value is listed as 145.5%. Further, in series [2] ('higher by'), the “increase of AUC0–t in the presence of morphine” value is listed as 0.6 fold and the “increase of Cmax in the presence of morphine” value is listed as 1.5 fold. Also, in series [2] (setting [3]), the “ratio sorafenib N-oxide/sorafenib, AUC0–t: Gmean ratio (90% CI) ISOR+MF vs. IISOR” value is 1.07 (0.70; 1.65); the “ratio sorafenib N-oxide/sorafenib, AUC0–∞: Gmean ratio (90% CI) ISOR+MF vs. IISOR” value was 0.89 (0.53; 1.51); the “ratio sorafenib N-oxide/sorafenib, Cmax: Gmean ratio (90% CI) ISOR+MF vs. IISOR” value is recorded as 1.03 (0.67; 1.61). In series [2] (setting [4]), the “AUC0–t Gmean ratio (90% CI) ISOR+MF vs. IISOR” value is recorded as 1.64 (1.14; 2.36), the “AUC0–∞ Gmean ratio (90% CI) ISOR+MF vs. IISOR” value is given as 1.41 (0.95; 2.08), the “Cmax Gmean ratio (90% CI) ISOR+MF vs. IISOR” value was 2.15 (1.50; 3.08) and the “kel Gmean ratio (90% CI) ISOR+MF vs. IISOR” value was 0.80 (0.47; 1.36). For the same compound, in series [2] (setting [4]), the “t1/2 Gmean ratio (90% CI) ISOR+MF vs. IISOR” value is listed as 1.25 (0.73; 2.13) and the “tmax Gmean ratio (90% CI) ISOR+MF vs. IISOR” value is 0.76 (0.41; 1.39). Further, the “ratio sorafenib N-oxide/sorafenib, Cmax” value in series [2] (sorafenib + morphine (ISOR+MF, n = 8)) is 0.09 ± 0.07 (76.2) µg/mL. Moreover, in series [2] (sorafenib alone (IISOR, n = 8)), the “ratio sorafenib N-oxide/sorafenib, Cmax” value is 0.07 ± 0.02 (26.8) µg/mL. Further, in series [2] (setting [5]), the “AUC0–t” value was 6.64 ± 2.44 (36.8) µg × h/mL, the “AUC0–∞” value is recorded as 9.39 ± 2.97 (31.6) µg × h/mL, the Cmax is 0.27 ± 0.16 (57.5) µg/mL and the “kel (elimination rate constant)” value is listed as 0.023 ± 0.012 (51.6) h^−1. Moreover, in series [2] (setting [5]), the “t1/2 (elimination phase)” value is recorded as 39.30 ± 22.54 (57.4) h and the tmax was 14.50 ± 11.40 (78.6) h. In series [2] (setting [6]), the “AUC0–t” value was 4.10 ± 1.56 (38.1) µg × h/mL, the “AUC0–∞” value is on record as 8.61 ± 2.19 (25.4) µg × h/mL, the Cmax is recorded as 0.11 ± 0.02 (21.8) µg/mL and the “kel (elimination rate constant)” value is 0.016 ± 0.010 (60.9) h^−1. Further, in series [2] (setting [6]), the “t1/2 (elimination phase)” value was 53.31 ± 25.23 (47.3) h and the tmax is 16.38 ± 8.21 (50.1) h.
